According to patent US20230145835A1, “Modulators of Alpha-4-beta-7 Integrin and MAdCAM” (48HD Biopharma Inc., priority 2021, published 2023):
Numbered stars: 1 amine (or outer) side, 2 acyl side, 3 side chain; on linkers, the order of the positions; unused ones are H or OH. Bridge positions count the residues as written; N and C are the ends. Square brackets hold non-standard residues; d marks the D form. Peptide text beside a SMILES is read from it. X3 = O=C(/C=N/OCCCCCCOc1cc(C[*:2])cc(C[*:3])c1)[*:1]; X1 = O=C(C=NOCCCCCCOc1cc(C[*:2])cc(C[*:3])c1)[*:1]; aThr = C[C@H](O)[C@H](N)C(=O)O; hSer = N[C@@H](CCO)C(=O)O; Nle = CCCC[C@H](N)C(=O)O

What follows are molecules tested against T1, rh-integrin α4β7/LPAM-1 (Homo sapiens, UniProt P13612+P26010) (assay: α4β7-MadCAM Competition ELISA (Example 4)). Conditions: IC50, Table 3 Representative compounds; inhibition of MAdCAM binding to coated α4β7.
T1 sequence (P13612 34-977 limits assumed): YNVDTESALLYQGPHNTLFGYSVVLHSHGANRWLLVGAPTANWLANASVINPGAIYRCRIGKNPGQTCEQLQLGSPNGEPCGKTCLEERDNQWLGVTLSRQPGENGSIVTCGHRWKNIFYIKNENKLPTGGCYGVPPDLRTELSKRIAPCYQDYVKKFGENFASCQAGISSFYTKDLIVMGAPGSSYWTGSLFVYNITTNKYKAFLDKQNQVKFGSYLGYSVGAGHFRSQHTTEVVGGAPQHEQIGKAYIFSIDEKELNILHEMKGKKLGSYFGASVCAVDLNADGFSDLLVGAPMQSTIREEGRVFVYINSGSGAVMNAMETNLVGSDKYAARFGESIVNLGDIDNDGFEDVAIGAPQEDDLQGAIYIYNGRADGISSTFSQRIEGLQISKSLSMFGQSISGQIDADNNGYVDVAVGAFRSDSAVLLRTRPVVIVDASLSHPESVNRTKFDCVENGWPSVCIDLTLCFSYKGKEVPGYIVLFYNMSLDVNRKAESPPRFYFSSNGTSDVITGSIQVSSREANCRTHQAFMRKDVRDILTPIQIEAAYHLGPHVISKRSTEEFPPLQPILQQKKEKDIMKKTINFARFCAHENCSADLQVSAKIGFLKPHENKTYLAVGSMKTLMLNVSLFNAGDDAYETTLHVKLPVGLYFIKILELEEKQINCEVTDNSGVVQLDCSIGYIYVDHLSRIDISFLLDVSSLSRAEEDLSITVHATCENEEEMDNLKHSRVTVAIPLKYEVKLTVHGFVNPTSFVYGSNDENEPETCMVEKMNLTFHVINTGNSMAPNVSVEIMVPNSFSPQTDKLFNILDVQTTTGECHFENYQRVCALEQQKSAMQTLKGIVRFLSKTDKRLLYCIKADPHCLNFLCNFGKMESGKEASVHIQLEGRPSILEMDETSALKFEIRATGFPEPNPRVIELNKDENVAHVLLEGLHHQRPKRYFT
T1 sequence (P26010 20-723 limits assumed): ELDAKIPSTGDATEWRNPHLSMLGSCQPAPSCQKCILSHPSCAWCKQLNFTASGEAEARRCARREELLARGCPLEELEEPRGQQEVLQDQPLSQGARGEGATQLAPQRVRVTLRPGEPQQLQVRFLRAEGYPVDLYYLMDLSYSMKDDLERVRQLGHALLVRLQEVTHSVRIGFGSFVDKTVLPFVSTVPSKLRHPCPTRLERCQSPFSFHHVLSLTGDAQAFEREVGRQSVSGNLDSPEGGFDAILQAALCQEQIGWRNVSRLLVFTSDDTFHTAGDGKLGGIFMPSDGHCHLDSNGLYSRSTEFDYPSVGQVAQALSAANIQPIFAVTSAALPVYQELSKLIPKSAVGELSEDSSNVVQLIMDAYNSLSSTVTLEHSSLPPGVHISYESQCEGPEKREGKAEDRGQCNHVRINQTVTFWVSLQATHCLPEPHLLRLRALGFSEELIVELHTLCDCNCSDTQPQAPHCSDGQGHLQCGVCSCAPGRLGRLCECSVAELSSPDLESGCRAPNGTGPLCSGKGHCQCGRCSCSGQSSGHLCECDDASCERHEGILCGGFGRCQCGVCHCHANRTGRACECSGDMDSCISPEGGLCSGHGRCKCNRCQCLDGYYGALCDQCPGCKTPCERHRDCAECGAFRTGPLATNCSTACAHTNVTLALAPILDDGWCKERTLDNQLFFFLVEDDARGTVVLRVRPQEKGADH
Type: binding
Method: After washing with wash buffer, 200 μL assay buffer was added to each well and incubated for one hour at 28° C. After another wash with wash buffer, 100 μL of a MAdCAM and peptide mixture in assay buffer was added to each well and incubated for one hour at 28° C., followed by washing with wash buffer.
For CC[C@H](C)[C@@H]1NC(=O)[C@H](CC(=O)O)NC(=O)[C@H](CCOC)NC(=O)[C@@H]2CCCN2C(=O)[C@@H]2CSCc3cc(cc(c3)OCCCCCCO/N=C/C(=O)N[C@@H](CCCNC(=N)N)C(=O)N2)CSC[C@@H](C(N)=O)NC(=O)[C@H](CCC(=O)O)NC(=O)[C@H](Cc2ccc(O)cc2)NC(=O)[C@H](Cc2c[nH]c3ccccc23)NC1=O [compound 48, TSL6- SRCP{Hse(OMe)} DIWYEC] (RCP[hSer](Me)DIWYEC-NH2; linker N-2-10 via X3), the IC50 was 1.71 µM.

Same assay, conditions: Table 3 Representative compounds; inhibition of MAdCAM binding to coated α4β7; read-out: IC50
CSCC[C@@H]1NC(=O)/C=N/OCCCCCCOc2cc3cc(c2)CSC[C@H](NC1=O)C(=O)N[C@@H](Cc1ccc(O)cc1)C(=O)N1CCC[C@H]1C(=O)N[C@@H](CC(=O)O)C(=O)N[C@@H]([C@@H](C)O)C(=O)N[C@@H](Cc1ccc(O)cc1)C(=O)N[C@@H](Cc1cnc[nH]1)C(=O)N[C@H](C(N)=O)CSC3 [compound 101, TSL6- SMCYPDTYHC] (MCYPDTYHC-NH2; linker N-2-9 via X3) was tested, and the IC50 was 167 µM. With CC[C@H](C)[C@@H]1NC(=O)/C=N/OCCCCCCOc2cc3cc(c2)CSC[C@H](NC1=O)C(=O)N[C@@H](Cc1ccc(O)cc1)C(=O)N1CCC[C@H]1C(=O)N[C@@H](CC(=O)O)C(=O)N[C@@H]([C@@H](C)O)C(=O)N[C@@H](Cc1ccc(O)cc1)C(=O)N[C@@H](Cc1cnc[nH]1)C(=O)N[C@H](C(N)=O)CSC3 [compound 91, TSL6- SICYPDTYHC] (ICYPDTYHC-NH2; linker N-2-9 via X3) the IC50 was 93.2 µM. Work on C[C@@H]1NC(=O)[C@@H]2CCCN2C(=O)[C@@H]2CSCc3cc(cc(c3)OCCCCCCO/N=C/C(=O)N[C@@H](CCCCN)C(=O)N2)CSC[C@@H](C(N)=O)NC(=O)[C@H](CCC(=O)O)NC(=O)[C@H](Cc2ccc(O)cc2)NC(=O)[C@@H]2CCCN2C(=O)[C@H]([C@@H](C)O)NC(=O)[C@H](CC(=O)O)NC1=O [compound 109, TSL- 6SKCPADTPYEC] (KCPADTPYEC-NH2; linker N-2-10 via X3) yielded an IC50 greater than 500 µM. CSCC[C@@H]1NC(=O)[C@H](CCCNC(=N)N)NC(=O)[C@@H]2CSCc3cc(cc(c3)OCCCCCCO/N=C/C(=O)N[C@@H]([C@H](C)O)C(=O)N2)CSC[C@@H](C(N)=O)NC(=O)[C@H](CC(=O)O)NC(=O)[C@H](CCC(N)=O)NC(=O)[C@H](Cc2ccccc2)NC(=O)[C@H](CC(=O)O)NC1=O [compound 106, TSL6- STCRMDFQDC] ([aThr]CRMDFQDC-NH2; linker N-2-9 via X3) showed an IC50 of 499 µM. For CC(C)C[C@@H]1NC(=O)[C@@H]2CCCN2C(=O)[C@@H]2CSCc3cc(cc(c3)OCCCCCCO/N=C/C(=O)N[C@@H](CCCCN)C(=O)N2)CSC[C@@H](C(N)=O)NC(=O)[C@H](CCC(=O)O)NC(=O)[C@H](Cc2ccc(O)cc2)NC(=O)[C@@H]2CCCN2C(=O)[C@H](C(C)C)NC(=O)[C@H](CC(=O)O)NC1=O [compound 10] (KCPLDVPYEC-NH2; linker N-2-10 via X3), the IC50 was 0.188 µM. C[C@@H](O)[C@@H]1NC(=O)[C@H](CC(=O)O)NC(=O)[C@@H]2CCCN2C(=O)[C@H](Cc2ccccc2)NC(=O)[C@@H]2CSCc3cc(cc(c3)OCCCCCCO/N=C/C(=O)N[C@@H](CC(=O)O)C(=O)N2)CSC[C@@H](C(N)=O)NC(=O)[C@H](Cc2cnc[nH]2)NC(=O)[C@H](Cc2ccc(O)cc2)NC1=O [compound 84, TSL6- SDCFPDTYHC] (DCFPDTYHC-NH2; linker N-2-9 via X3) showed an IC50 of 65.7 µM. NC(=O)[C@@H]1CSCc2cc3cc(c2)OCCCCCCO/N=C/C(=O)N[C@@H](CC(=O)O)C(=O)N[C@@H](CSC3)C(=O)N[C@@H](Cc2ccc(O)cc2)C(=O)N2CCC[C@H]2C(=O)N[C@@H](CC(=O)O)C(=O)N[C@@H](Cc2ccccc2)C(=O)N[C@@H](Cc2ccc(O)cc2)C(=O)N[C@@H](Cc2cnc[nH]2)C(=O)N1 [compound 96, TSL6- SDCYPDFYHC] (DCYPDFYHC-NH2; linker N-2-9 via X3) gave an IC50 of 124 µM. In the case of CC(C)C[C@@H]1NC(=O)/C=N/OCCCCCCOc2cc3cc(c2)CSC[C@H](NC1=O)C(=O)N[C@@H](Cc1ccc(O)cc1)C(=O)N1CCC[C@H]1C(=O)N[C@@H](CC(=O)O)C(=O)N[C@@H]([C@@H](C)O)C(=O)N[C@@H](Cc1ccc(O)cc1)C(=O)N[C@@H](Cc1cnc[nH]1)C(=O)N[C@H](C(N)=O)CSC3 [compound 73, TSL6- SLCYPDTYHC] (LCYPDTYHC-NH2; linker N-2-9 via X3), the IC50 is reported as 30.6 µM. In the case of CCCC[C@@H]1NC(=O)[C@@H]2CCCN2C(=O)[C@@H]2CSCc3cc(cc(c3)OCCCCCCO/N=C/C(=O)N[C@@H](CCCNC(=N)N)C(=O)N2)CSC[C@@H](C(N)=O)NC(=O)[C@H](CCC(=O)O)NC(=O)[C@H](C)NC(=O)[C@H](C)NC(=O)[C@H]([C@@H](C)CC)NC(=O)[C@H](CC(=O)O)NC1=O [compound 12] (RCP[Nle]DIAAEC-NH2; linker N-2-10 via X3), the IC50 is reported as 0.204 µM. In the case of C[C@@H](O)[C@@H]1NC(=O)[C@H](CC(=O)O)NC(=O)[C@@H]2CCCN2C(=O)[C@H](Cc2ccc(O)cc2)NC(=O)[C@@H]2CSCc3cc(cc(c3)OCCCCCCO/N=C/C(=O)N[C@@H](CCC(=O)O)C(=O)N2)CSC[C@@H](C(N)=O)NC(=O)[C@H](Cc2cnc[nH]2)NC(=O)[C@H](Cc2ccc(O)cc2)NC1=O [compound 71, TSL6- SECYPDTYHC] (ECYPDTYHC-NH2; linker N-2-9 via X3), the IC50 is reported as 20.2 µM. CSCC[C@@H]1NC(=O)[C@@H]2CCCN2C(=O)[C@@H]2CSCc3cc(cc(c3)OCCCCCCO/N=C/C(=O)N[C@@H](C)C(=O)N2)CSC[C@@H](C(N)=O)NC(=O)[C@H](CCC(=O)O)NC(=O)CNC(=O)[C@H](Cc2c[nH]c3ccccc23)NC(=O)[C@H](C(C)C)NC(=O)[C@H](CC(=O)O)NC1=O [compound 75, TSL6- SACPMDVWGEC] (ACPMDVWGEC-NH2; linker N-2-10 via X3) showed an IC50 of 31.3 µM. Work on CC(C)C[C@@H]1NC(=O)[C@@H]2CCCN2C(=O)[C@H](Cc2c[nH]c3ccccc23)NC(=O)[C@@H]2CCCN2C(=O)[C@@H]2CSCc3cc(cc(c3)OCCCCCCO/N=C/C(=O)N[C@@H](CCC(=O)O)C(=O)N2)CSC[C@@H](C(N)=O)NC(=O)[C@H](CCC(N)=O)NC(=O)[C@@H]2CCCN2C1=O [compound 105, TSL6- SECPWPLPQC] (ECPWPLPQC-NH2; linker N-2-9 via X3) yielded an IC50 of 341 µM. For CC[C@H](C)[C@@H]1NC(=O)[C@H](C(C)C)NC(=O)[C@H](CC(=O)O)NC(=O)[C@H](CC(C)C)NC(=O)[C@H](CCSC)NC(=O)[C@@H]2CSCc3cc(cc(c3)OCCCCCCO/N=C/C(=O)N[C@@H](C)C(=O)N2)CSC[C@@H](C(N)=O)NC(=O)[C@H](CO)NC1=O [compound 85, TSL6- SACMLDVISC] (ACMLDVISC-NH2; linker N-2-9 via X3), the IC50 was 66.6 µM.

Same assay, conditions: competition ELISA, 4 μg/mL α4β7 coated, MAdCAM and peptide mixture, 28° C.; read-out: IC50
Molecule C[C@@H](O)[C@@H]1NC(=O)[C@H](CC(=O)O)NC(=O)[C@@H]2CCCN2C(=O)[C@H](Cc2ccc(O)cc2)NC(=O)[C@@H]2CSCc3cc(cc(c3)OCCCCCCON=CC(=O)N[C@@H](CC(N)=O)C(=O)N2)CSC[C@@H](C(=O)O)NC(=O)[C@H](Cc2c[nH]cn2)NC(=O)[C@H](Cc2ccc(O)cc2)NC1=O [SEQ ID NO: 86] (NCYPDTYHC-OH; linker N-2-9 via X1) has an IC50 of 79.3 µM. Molecule CSCC[C@@H]1NC(=O)[C@@H]2CCCN2C(=O)[C@@H]2CSCc3cc(cc(c3)OCCCCCCON=CC(=O)N[C@@H](C)C(=O)N2)CSC[C@@H](C(=O)O)NC(=O)[C@H](CCC(=O)O)NC(=O)CNC(=O)[C@H](C)NC(=O)[C@H](C(C)C)NC(=O)[C@H](CC(=O)O)NC1=O [SEQ ID NO: 101] (ACPMDVAGEC-OH; linker N-2-10 via X1) has an IC50 of 5.98 µM.
